Test results taken from patent US20060154236A1, “Computer-assisted analysis” (priority 2004, published 2006).
Starred links: 1 amine or outer side, 2 acyl side, 3 side chain; linkers in the order of their positions; H or OH if unused. Positions of bridges follow the written chain, without caps; N, C: chain ends. Non-standard residues stand in square brackets, D forms with d. Residues, ends and D or L forms follow the SMILES beside them. Chains are numbered I, II in the order given. Actinocin(9to1) = Cc1c2oc3c(C)ccc(C(=O)[*:1])c3nc-2c(C(=O)[*:2])c(N)c1=O; NMeV = CN[C@H](C(=O)O)C(C)C; Nle = CCCC[C@H](N)C(=O)O; Sar = CNCC(=O)O

Tested on: HeLa (human cancer) cells
Experiment: Cytological dose-response profiling by automated fluorescence microscopy (KS statistic z-scores, 93 descriptors)
Format: cell-based
Settings: HeLa cells, 20 hrs, thirteen 3-fold dilutions; Y = profile response above signal threshold
Procedure: The known drug set was chosen to cover common mechanisms of toxicity or therapeutic action in cancer and other diseases, and to include several groups with a common target (macromolecule or pathway) but unrelated structures. We analyzed thirteen 3-fold dilutions of each drug, covering a final concentration range on cells from micromolar to picomolar. (Table 3 and Materials & Methods). HeLa (human cancer) cells were cultured in 384-well plates to near confluence, treated with drugs for 20 hrs, fixed, and stained with fluorescent probes for various cell components and processes. We chose 11 distinct probes that covered a range of cell biology, multiplexing a DNA stain and two antibodies per well (the probe sets are: (SC35, anillin), (α-tubulin, actin), (phospho-p38, phospho-ERK), (p53, cFos), (phospho-CREB, calmodulin)). Using automated fluorescence microscopy, we collected images of up to ˜8000 cells from each well. 26 wells on each plate were treated only with DMSO to generate a control population. The experiment was performed twice in parallel to provide a replicate dataset. Image segmentation procedures were used to automatically identify nuclei and nuclear organelles, and cytoplasmic regions were approximated as an annulus surrounding each identified nucleus (FIG. 31A). For each cell, region, and probe, a set of descriptors was measured. These included measures of size, shape, and intensity, as well as ratios of intensities between regions (93 descriptors total, Table S3).
For profiling studies, it is useful to reduce each population of descriptor values to a single number. […] We devised a measure based on the Kolmogorov-Smirnov (KS) statistic, allowing nonparametric comparison of experimental and control distributions from the same plate (FIGS. 31B and 35). […] In particular, the relationship between z-score and the original physical measure may be non-linear.
Cell culture. 20 hours before compound addition, Hela cells grown in […] dishes were trypsinized, resuspended in DMEM supplemented with 10% FCS and 10 ug/mL penicillin/streptomycin, and plated in 384-well plates at an initial density of 3,000 cells per well, 40 uL per well. Compounds were purchased from Sigma (St. Louis, MO), Calbiochem (EMD Biosciences, San Diego, Calif.) and Tocris (Elliksville, MO) and are listed in Table 2. Compound stocks were prepared in DMSO and then arrayed on 384-well plates in 16 consecutive 1:3 serial dilutions in DMSO as outlined in Table 3. The highest and two lowest dilutions (rows A, 0 and P) were not used for subsequent analysis as the wells due to persistent edge effects, leaving us with a series of 13 dilutions. Each stock was diluted 16-fold in warmed culture medium, and 8 μl of this solution was added to the plated cells, resulting in a 96-fold final dilution. All conditions were performed in duplicate in separate plates. Cells were incubated at 37° C. for 20 hours, then fixed in 3% formaldehyde in PBS. All liquid handling was performed using a programmed TekBench (TekCel, Hopkinton, Mass.).
Markers. Five sets of markers were stained by standard immunofluorescence methods in this study.

Compound | Used in clustering (FIG. 33)
CNc1ccc2oc(C[C@H]3O[C@@]4(CC[C@H]3C)O[C@H]([C@H](C)C(=O)c3ccc[nH]3)[C@H](C)C[C@H]4C)nc2c1C(=O)O [Compound 2, A23187 free acid] | Y
Cc1c2oc3c(C)ccc(C(=O)N[C@@H]4C(=O)N[C@H](C(C)C)C(=O)N5CCC[C@H]5C(=O)N(C)CC(=O)N(C)[C@@H](C(C)C)C(=O)O[C@@H]4C)c3nc-2c(C(=O)N[C@@H]2C(=O)N[C@H](C(C)C)C(=O)N3CCC[C@H]3C(=O)N(C)CC(=O)N(C)[C@@H](C(C)C)C(=O)O[C@@H]2C)c(N)c1=O [Compound 4, Actinomycin D] (I: T[dV]P[Sar][NMeV] / II: T[dV]P[Sar][NMeV]; ester I:1-I:C, II:1-II:C; linker I:N-II:N via Actinocin(9to1)) | Y
CCCC[C@@H](C=O)NC(=O)[C@H](CC(C)C)NC(=O)[C@H](CC(C)C)NC(C)=O [Compound 5, N-acetyl-Leu-Leu-norleucinal] (Ac-Leu-Leu-[Nle]-aldehyde) | Y
O=C1Cc2c([nH]c3ccc([N+](=O)[O-])cc23)-c2ccccc2N1 [Compound 6, Alsterpaullone] | Y
COc1ccc(C[C@H]2NC[C@H](O)[C@H]2OC(C)=O)cc1 [Compound 7, Anisomycin] | Y
C[C@H]1CCC/C=C/[C@@H]2C[C@H](O)C[C@H]2[C@H](O)/C=C/C(=O)O1 [Compound 8, Brefeldin A] | Y
COc1cc2c(c(OC)c1OC)-c1ccc(OC)c(=O)cc1[C@@H](NC(C)=O)CC2 [Compound 13, Colchicine] | Y
C[C@@H]1C[C@@H]([C@H](O)CC2CC(=O)NC(=O)C2)C(=O)[C@@H](C)C1 [Compound 14, Cycloheximide] | Y
C=C1[C@@H](C)[C@H]2[C@H](Cc3ccccc3)NC(=O)[C@]23[C@H](OC(C)=O)/C=C/[C@@](C)(O)C(=O)[C@@H](C)C/C=C/[C@H]3[C@@H]1O [Compound 16, Cytochalasin D] | Y
C[C@@H]1C[C@H]2[C@@H]3CCC4=CC(=O)C=C[C@]4(C)[C@@]3(F)[C@@H](O)C[C@]2(C)[C@@]1(O)C(=O)CO [Compound 19, Dexamethasone] | Y
COc1cccc2c1C(=O)c1c(O)c3c(c(O)c1C2=O)C[C@@](O)(C(=O)CO)C[C@@H]3O[C@H]1C[C@H](N)[C@H](O)[C@H](C)O1 [Compound 20, Doxorubicin] | Y
Cc1cc(O)c2c(c1)C(=O)c1cc(O)cc(O)c1C2=O [Compound 22, Emodin] | Y
O=C1Nc2ccccc2/C1=C1/Nc2ccccc2/C1=N\O [Compound 32, Indirubin monoxime] | Y
C/C1=C\[C@H](C)C[C@H](C)OC(=O)C[C@H](c2ccc(O)cc2)NC(=O)[C@@H](Cc2c(Br)[nH]c3ccccc23)N(C)C(=O)[C@H](C)NC(=O)[C@@H](C)C1 [Compound 34, Jasplakinolide] | Y
C/C1=C/C(=O)O[C@@H]2C[C@@H](CC[C@H](C)/C=C\CC1)O[C@@](O)([C@@H]1CSC(=O)N1)C2 [Compound 36, Latrunculin B] | Y
CC[C@H](C)C(=O)O[C@H]1CCC=C2C=C[C@H](C)[C@H](CC[C@@H]3C[C@@H](O)CC(=O)O3)[C@H]21 [Compound 37, Mevastatin] | Y
CCOC(=O)C1=C(C)NC(=S)NC1c1cccc(O)c1 (centres unmarked) [Compound 39, Monastrol] | Y
C=C1[C@@H](O)[C@@H]2O[C@]3(CC[C@H](/C=C/[C@@H](C)[C@@H]4CC(C)=C[C@@]5(O[C@H](C[C@@](C)(O)C(=O)O)CC[C@H]5O)O4)O3)CC[C@H]2O[C@@H]1[C@@H](O)C[C@H](C)[C@H]1O[C@@]2(CCCCO2)CC[C@H]1C [Compound 41, Okadaic acid] | Y
CCCCCCCCCCCCCC(=O)O[C@@H]1[C@@H](C)[C@@]2(O)[C@@H](C=C(CO)C[C@]3(O)C(=O)C(C)=C[C@@H]23)[C@@H]2C(C)(C)[C@]12OC(C)=O [Compound 43, PMA] | Y
COc1cc([C@@H]2c3cc4c(cc3[C@H](O)[C@H]3COC(=O)[C@H]23)OCO4)cc(OC)c1OC [Compound 44, Podophyllotoxin] | Y
COc1ccc(C[C@H](N)C(=O)N[C@H]2[C@@H](O)[C@H](n3cnc4c(N(C)C)ncnc43)O[C@@H]2CO)cc1 [Compound 45, Puromycin] | Y

Compound | Used in clustering (FIG. 33)
CC1=C(/C=C/C(C)=C/C=C/C(C)=C/C(=O)O)C(C)(C)CCC1 [Compound 48, Retinoic acid (trans)] | Y
CN[C@@H]1C[C@H]2O[C@@](C)([C@@H]1OC)n1c3ccccc3c3c4c(c5c6ccccc6n2c5c31)C(=O)NC4 [Compound 51, Staurosporine] | Y
CC(=O)O[C@H]1C(=O)[C@@]2(C)[C@H]([C@H](OC(=O)c3ccccc3)[C@]3(O)C[C@H](OC(=O)[C@H](O)[C@@H](NC(=O)c4ccccc4)c4ccccc4)C(C)=C1C3(C)C)[C@]1(OC(C)=O)CO[C@@H]1C[C@@H]2O [Compound 53, Taxol] | Y
CC(/C=C/C(=O)NO)=C\[C@@H](C)C(=O)c1ccc(N(C)C)cc1 [Compound 54, Trichostatin] | Y
CC[C@]1(O)C[C@@H]2CN(CCc3c([nH]c4ccccc34)[C@@](C(=O)OC)(c3cc4c(cc3OC)N(C)[C@H]3[C@@](O)(C(=O)OC)[C@H](OC(C)=O)[C@]5(CC)C=CCN6CC[C@]43[C@@H]65)C2)C1 [Compound 57, Vinblastine] | Y
CN(C)CCCN1c2ccccc2Sc2ccc(Cl)cc21 [Compound 62, Chloropromazine] | Y
COc1cccc(-c2cc(=O)c3ccccc3o2)c1N [Compound 63, PD98059] | Y
CN1CCN(C2=Nc3cc(Cl)ccc3Nc3ccccc32)CC1 [Compound 64, Clozapine] | Y
CCC(C)(C)C(=O)O[C@H]1C[C@@H](C)C=C2C=C[C@H](C)[C@H](CC[C@@H]3C[C@@H](O)CC(=O)O3)[C@H]21 [Compound 70, Simavastatin] | Y
CCC(=O)CCCCC[C@@H]1NC(=O)[C@H]2CCCCN2C(=O)[C@H]([C@@H](C)CC)NC(=O)[C@H](Cc2cn(OC)c3ccccc23)NC1=O [Compound 76, Apicidin] | Y
C/C(=C\c1csc(C)n1)[C@@H]1C[C@@H]2O[C@]2(C)CCC[C@H](C)[C@H](O)[C@@H](C)C(=O)C(C)(C)[C@@H](O)CC(=O)O1 [Compound 77, Epothilone B] | Y
NS(=O)(=O)c1ccc(-n2nc(C(F)(F)F)cc2-c2ccc(Cl)cc2)cc1 [Compound 79, SC236] | Y
C[S+]([O-])c1ccc(-c2nc(-c3ccncc3)c(-c3ccc(F)cc3)[nH]2)cc1 (centres unmarked) [Compound 80, SB203580] | Y
C[C@@]1(CO)[C@H](O)CC[C@@]2(C)[C@H]1CC[C@H]1C[C@@H]3C[C@@]12CC[C@]3(O)CO [Compound 81, Aphidicolin] | Y
CN(Cc1cnc2nc(N)nc(N)c2n1)c1ccc(C(=O)N[C@@H](CCC(=O)O)C(=O)O)cc1 [Compound 83, Methotrexate] | Y
CC[C@H]1/C=C/C=C/C[C@@H](C)[C@H](O)[C@@](C)(O)C(=O)[C@@H](C)[C@H](O)[C@@H](C)C(=O)[C@@H](C)[C@H](O)[C@@H](C)/C=C/C(=O)O[C@@H]2[C@H](C)[C@H](CC1)O[C@]1(CC[C@H](C)[C@H](C[C@@H](C)O)O1)[C@H]2C [Compound 90, Oligomycin] | Y
COC(=O)Nc1nc2ccc(C(=O)c3cccs3)cc2[nH]1 [Compound 91, Nocodazole] | Y
Amanitin [Compound 3] | Y
Oxamflatin [Compound 78] | Y
Tunicamycin [Compound 55] | Y
